Results published in PubChem BioAssay (NCI).
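Grown in 96-well plates, cells were treated for 48 hours with each compound at five concentrations. Insufficient inhibition: endpoint recorded as highest concentration tested. The concentration for 50% growth inhibition is given as GI50. TGI marks complete inhibition of growth.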

Key:
Assay in all cases: NCI-60 cell line screen, 48 h
HCT-116 colon = system: HCT-116 colon
SF-295 CNS = system: SF-295 CNS
COLO 205 colon = system: COLO 205 colon
HT29 colon = system: HT29 colon
NCI-H226 lung = system: NCI-H226 lung
UO-31 renal = system: UO-31 renal
SK-MEL-28 melanoma = system: SK-MEL-28 melanoma
MDA-MB-435 = system: MDA-MB-435
BT-549 breast = system: BT-549 breast
SK-MEL-2 melanoma = system: SK-MEL-2 melanoma

SMILES: CCCCCCCC(=O)NCC(O)CNC(=O)CCCCCCC
- TGI (HCT-116 colon): > 100 µM
- TGI (SF-295 CNS): > 100 µM
- TGI (COLO 205 colon): > 100 µM
- TGI (HT29 colon): > 100 µM
- TGI (NCI-H226 lung): > 100 µM
- TGI (UO-31 renal): > 100 µM

SMILES: Nc1ncnc2c1ncn2Cc1ccc(C23CC4CC(CC(C4)C2)C3)c(OCc2cc(F)c(F)cc2F)c1
- GI50 (HCT-116 colon): 3.08 µM
- TGI (HCT-116 colon): 13.2 µM
- GI50 (SF-295 CNS): 6.29 µM
- TGI (SF-295 CNS): > 100 µM
- GI50 (COLO 205 colon): 14.4 µM
- TGI (COLO 205 colon): > 100 µM
- GI50 (SK-MEL-28 melanoma): > 100 µM
- TGI (SK-MEL-28 melanoma): > 100 µM
- GI50 (HT29 colon): 12 µM
- TGI (HT29 colon): > 100 µM
- GI50 (NCI-H226 lung): > 100 µM
- TGI (NCI-H226 lung): > 100 µM
- GI50 (MDA-MB-435): 5.22 µM
- TGI (MDA-MB-435): > 100 µM
- GI50 (BT-549 breast): > 100 µM
- TGI (BT-549 breast): > 100 µM
- GI50 (SK-MEL-2 melanoma): > 100 µM
- TGI (SK-MEL-2 melanoma): > 100 µM

SMILES: Cc1ccccc1C1=[N+]([O-])c2ccccc2C1=O
- TGI (HCT-116 colon): 32.4 µM
- TGI (SF-295 CNS): 44.9 µM
- TGI (COLO 205 colon): 29.1 µM
- TGI (SK-MEL-28 melanoma): 35.8 µM
- TGI (HT29 colon): 27.7 µM
- TGI (NCI-H226 lung): 30.7 µM
- TGI (UO-31 renal): 36.6 µM
- TGI (SK-MEL-2 melanoma): 21.2 µM

SMILES: CCOC(=O)c1c(-c2ccccc2)oc(-c2ccccc2)c1C(=O)OCC
- TGI (HCT-116 colon): > 100 µM
- TGI (SF-295 CNS): > 100 µM
- TGI (COLO 205 colon): > 100 µM
- TGI (SK-MEL-28 melanoma): > 100 µM
- TGI (HT29 colon): > 100 µM
- TGI (NCI-H226 lung): > 100 µM
- TGI (UO-31 renal): > 100 µM
- TGI (SK-MEL-2 melanoma): > 100 µM

SMILES: CC(=O)Oc1cc(C)c2c(c1OC(C)=O)CC1(O2)[C@@H](C)CCC2[C@@]3(C)CC[C@H](OC(C)=O)C(C)(C)C3CC[C@]21C (stereo not given in full)
- TGI (HCT-116 colon): 13.3 µM
- TGI (SF-295 CNS): 16.2 µM
- TGI (COLO 205 colon): 3.15 µM
- TGI (SK-MEL-28 melanoma): 15.9 µM
- TGI (HT29 colon): 19.6 µM
- TGI (NCI-H226 lung): 25.6 µM
- TGI (UO-31 renal): 3.93 µM

SMILES: O=C(O)C1=CCCc2ccc3ccccc3c21
- TGI (HCT-116 colon): > 100 µM
- TGI (SF-295 CNS): > 100 µM
- TGI (COLO 205 colon): > 100 µM
- TGI (SK-MEL-28 melanoma): > 100 µM
- TGI (HT29 colon): > 100 µM
- TGI (NCI-H226 lung): > 100 µM
- TGI (UO-31 renal): > 100 µM
- TGI (SK-MEL-2 melanoma): > 100 µM

SMILES: CSc1cccc(-n2c3nc(=O)n(C)c(=O)c-3nc3ccccc32)c1
- TGI (SF-295 CNS): 23.6 µM
- TGI (COLO 205 colon): 11 µM
- TGI (SK-MEL-28 melanoma): 37.3 µM
- TGI (HT29 colon): 15.9 µM
- TGI (NCI-H226 lung): 28.9 µM
- TGI (UO-31 renal): 32.9 µM
- TGI (SK-MEL-2 melanoma): 31.1 µM

SMILES: COc1ccc(-n2cc(-c3cc(OC)c(OC)c(OC)c3)nc2SCc2ccccc2)cc1
- GI50 (HCT-116 colon): 17.5 µM
- TGI (HCT-116 colon): > 100 µM
- GI50 (SF-295 CNS): > 100 µM
- TGI (SF-295 CNS): > 100 µM
- GI50 (COLO 205 colon): 49.5 µM
- TGI (COLO 205 colon): > 100 µM
- GI50 (SK-MEL-28 melanoma): 76.6 µM
- TGI (SK-MEL-28 melanoma): > 100 µM
- GI50 (HT29 colon): 35.6 µM
- TGI (HT29 colon): > 100 µM
- GI50 (NCI-H226 lung): > 100 µM
- TGI (NCI-H226 lung): > 100 µM
- GI50 (UO-31 renal): 28 µM
- TGI (UO-31 renal): > 100 µM
- GI50 (MDA-MB-435): > 100 µM
- TGI (MDA-MB-435): > 100 µM
- GI50 (SK-MEL-2 melanoma): > 100 µM
- TGI (SK-MEL-2 melanoma): > 100 µM

SMILES: CC(=O)N1c2ccccc2C2=CC3C4C(=O)N(c5ccccc5)C(=O)C4C21C1C(=O)N(c2ccccc2)C(=O)C31 (stereo not given)
- TGI (HCT-116 colon): > 100 µM
- TGI (SF-295 CNS): 39.1 µM
- TGI (COLO 205 colon): > 100 µM
- TGI (SK-MEL-28 melanoma): > 100 µM
- TGI (HT29 colon): > 100 µM
- TGI (UO-31 renal): > 100 µM
- TGI (SK-MEL-2 melanoma): 56.2 µM

SMILES: N#C/C(=N\Nc1ccc(Cl)cc1)C(=O)Nc1cc(-c2ccccc2)nn1-c1ccccc1
- GI50 (HCT-116 colon): 2.7 µM
- TGI (HCT-116 colon): > 100 µM
- GI50 (SF-295 CNS): 2.86 µM
- TGI (SF-295 CNS): > 100 µM
- GI50 (COLO 205 colon): 2.07 µM
- TGI (COLO 205 colon): 4.51 µM
- GI50 (SK-MEL-28 melanoma): 3.62 µM
- TGI (SK-MEL-28 melanoma): > 100 µM
- GI50 (HT29 colon): 3.32 µM
- TGI (HT29 colon): > 100 µM
- GI50 (UO-31 renal): 2.93 µM
- TGI (UO-31 renal): > 100 µM
- GI50 (MDA-MB-435): 2.79 µM
- TGI (MDA-MB-435): > 100 µM
- GI50 (BT-549 breast): 2.52 µM
- TGI (BT-549 breast): 7.18 µM
- GI50 (SK-MEL-2 melanoma): 2.39 µM
- TGI (SK-MEL-2 melanoma): 8.89 µM
